Literature values in PubChem BioAssay AID1259409 (Chemical Carcinogenesis Research Information System (CCRIS), 2018).

System: rodent chemically induced tumor inhibition, incidence and multiplicity
Assay: CCRIS tumor inhibitor studies
Details: for tumour outcome (control, treated, inhibition, significance): Route [Inhibitor]: ORAL

C#C[C@]1(O)CC[C@H]2[C@@H]3CCc4cc(CC)ccc4[C@H]3CC[C@@]21C (tested in a mixture with another compound)
tumour outcome (control, treated, inhibition, significance) (Carcinogen: 3-METHYLCHOLANTHRENE, 56-49-5, Dose [Inhibitor]: 0, 1/200 OF A PILL CONTAINING 0.25 UG ETHINYLESTRADIOL AND 5 UG LYNESTRENOL 1/D FOR 60 D (STUDY DURATION: 60 D), Species: MOUSE, Strain/Sex: SWISS/FEMALE, Target Tissue: Type of Lesion: UTERINE CERVIX: TUMOR, Dose [Carcinogen]: 300 UG IN BEESWAX IMPREGNATED COTTON THREAD INSERTED INTO CANAL OF UTERINE CERVIX FOR DURATION OF STUDY, Promoter: NONE USED): 2/23 (9%), 1/27 (4%), 56%, not significant
tumour outcome (control, treated, inhibition, significance) (Carcinogen: 3-METHYLCHOLANTHRENE, 56-49-5, Dose [Inhibitor]: 0, 1/200 OF A PILL CONTAINING 0.25 UG ETHINYLESTRADIOL AND 5 UG LYNESTRENOL 1/D FOR 90 D (STUDY DURATION: 90 D), Species: MOUSE, Strain/Sex: SWISS/FEMALE, Target Tissue: Type of Lesion: UTERINE CERVIX: TUMOR, Dose [Carcinogen]: 300 UG IN BEESWAX IMPREGNATED COTTON THREAD INSERTED INTO CANAL OF UTERINE CERVIX FOR DURATION OF STUDY, Promoter: NONE USED): 6/23 (26%), 4/20 (20%), 23%, not significant
tumour outcome (control, treated, inhibition, significance) (Carcinogen: 3-METHYLCHOLANTHRENE, 56-49-5, Dose [Inhibitor]: 0, 1/2000 OF A PILL CONTAINING 0.025 UG ETHINYLESTRADIOL AND 0.5 UG OF LYNESTRENOL 1/D FOR 60 D (STUDY DURATION: 60 D), Species: MOUSE, Strain/Sex: SWISS/FEMALE, Target Tissue: Type of Lesion: UTERINE CERVIX: TUMOR, Dose [Carcinogen]: 300 UG IN BEESWAX IMPREGNATED COTTON THREAD INSERTED INTO CANAL OF UTERINE CERVIX FOR DURATION OF STUDY, Promoter: NONE USED): 2/23 (9%), 1/24 (4%), 56%, not significant
tumour outcome (control, treated, inhibition, significance) (Carcinogen: 3-METHYLCHOLANTHRENE, 56-49-5, Dose [Inhibitor]: 0, 1/2000 OF A PILL CONTAINING 0.025 UG ETHINYLESTRADIOL AND 0.5 UG OF LYNESTRENOL 1/D FOR 90 D (STUDY DURATION: 90 D), Species: MOUSE, Strain/Sex: SWISS/FEMALE, Target Tissue: Type of Lesion: UTERINE CERVIX: TUMOR, Dose [Carcinogen]: 300 UG IN BEESWAX IMPREGNATED COTTON THREAD INSERTED INTO THE CANAL OF THE UTERINE CERVIX FOR THE DURATION OF STUDY, Promoter: NONE USED): 6/23 (26%), 1/31 (3%), 88%, p<0.05

Cc1ccc2oc(=O)ccc2c1
tumour outcome (control, treated, inhibition, significance) (Carcinogen: BENZO[A]PYRENE, 50-32-8, Dose [Inhibitor]: 0.034 MMOL/G IN DIET FOR 5 WK BEGINNING 1 WK PRIOR TO FIRST CARCINOGEN DOSE AND CONTINUING FOR 3 D POST LAST CARCINOGEN, Species: MOUSE, Strain/Sex: ICR/FEMALE, Target Tissue: Type of Lesion: FORESTOMACH: TUMOR, Dose [Carcinogen]: 1 MG IN 0.2 ML CORN OIL 2/WK FOR 4 WK, Promoter: NONE USED): 90%, 90%, 0%, not significant

Oc1cc(O)cc(O)c1
tumour outcome (control, treated, inhibition, significance) (Carcinogen: BENZO[A]PYRENE, 50-32-8, Dose [Inhibitor]: 0.03 MMOL/G OF DIET DAILY STARTING 7 D BEFORE AND CONTINUING THROUGH 3 D AFTER CARCINOGEN TREATMENT FOLLOWED BY OBSERVAT, Species: MOUSE, Strain/Sex: ICR/FEMALE, Target Tissue: Type of Lesion: FORESTOMACH: NEOPLASM, Dose [Carcinogen]: 1 MG IN 0.2 ML CORN OIL 2/WK FOR 4 WK, Promoter: NONE USED): 100%, 83%, 17%, not significant

CC(C)=CCC/C(C)=C/CC/C(C)=C/C=C/C(C)=C/C(=O)O
outcome (Carcinogen: 3-METHYL-4-DIMETHYLAMINOAZOBENZENE [3732-90-9], Dose [Inhibitor]: 0, 10, 40, 80 MG/KG BW DAILY FOR 16 WK, Dose [Inhibitor]: 0, 10, 40, 80 MG/KG BW DAILY FOR 16 WK, Route [Inhibitor]: ORAL (GAVAGE), Species: RAT, Strain/Sex: F344/MALE (40,29)/(40,30)/(40,30)/(40,29), Target Tissue: Type of Lesion: LIVER: HEPATOCELLULAR CARCINOMA, Dose [Carcinogen]: 0.06% FOR 16 WK): (17/29) 57%; (16/30) 53%, 9%; (4/30) 13%, 77%, p<0.05; (2/29) 7%, 89%, p<0.05
outcome (Carcinogen: 3-METHYL-4-DIMETHYLAMINOAZOBENZENE [3732-90-9], Dose [Inhibitor]: 0, 10, 40, 80 MG/KG BW DAILY FOR 16 WK, Dose [Inhibitor]: 0, 10, 40, 80 MG/KG BW DAILY FOR 16 WK, Route [Inhibitor]: ORAL (GAVAGE), Species: RAT, Strain/Sex: F344/MALE (40,29)/(40,30)/(40/30)/(40,29), Target Tissue: Type of Lesion: LIVER: HEPATOCELLULAR ADENOMA, Dose [Carcinogen]: 0.06% FOR 16 WK): (29/29) 100%; (30/30) 100%, 0%; (26/30) 86.7%, 13.3%; (24/29) 82.4%, 17.6%

C=C(NC(=O)Cc1ccccc1OC)C(=O)O
outcome (Carcinogen: X-RAY, Dose [Inhibitor]: 0, 100 MG/KG 15 MIN PRIOR TO EACH IRRADIATION (STUDY DURATION: 14 MO), Route [Inhibitor]: INTRAPERITONEAL, Species: MOUSE, Strain/Sex: C57BL/MALE AND FEMALE, Target Tissue: Type of Lesion: THYMUS GLAND: LYMPHOMA, Dose [Carcinogen]: 175 RADS 1/WK FOR 4 WK (250 KV X-RAYS, PHILLIPS RT 200/250), Promoter: NONE USED): 45%, 45%, 0%, not significant at 5 mo; 93%, >90%, <3%, not calculated
outcome (Carcinogen: X-RAY, Dose [Inhibitor]: 0, 200 MG/KG 15 MIN PRIOR TO SECOND AND FOURTH IRRADIATION (STUDY DURATION 14 MO), Route [Inhibitor]: INTRAPERITONEAL, Species: MOUSE, Strain/Sex: C57BL/MALE AND FEMALE, Target Tissue: Type of Lesion: THYMUS GLAND: LYMPHOMA, Dose [Carcinogen]: 175 RADS 1/WK FOR 4 WK (250 KV X-RAYS, PHILLIPS RT 200/250), Promoter: NONE USED): 45%, 0%, 100%, not calculated at 5 mo; 93%, 40%, 57%, not calculated at 8 mo
outcome (Carcinogen: X-RAY, Dose [Inhibitor]: 0, 400 MG/KG ONCE 15 MIN PRIOR TO FIRST IRRADIATION (STUDY DURATION: 14 MO), Route [Inhibitor]: INTRAPERITONEAL, Species: MOUSE, Strain/Sex: C57BL/MALE AND FEMALE, Target Tissue: Type of Lesion: THYMUS GLAND: LYMPHOMA, Dose [Carcinogen]: 175 RADS 1/WK FOR 4 WK (250 KV X-RAYS, PHILLIPS RT 200/250), Promoter: NONE USED): 45%, 10%, 78%, not calculated at 5 mo; 93%, >90%, <3%, not calculated at 8 mo

COc1cc(OC)c2ccc(=O)oc2c1
tumour outcome (control, treated, inhibition, significance) (Carcinogen: 7,12-DIMETHYLBENZ(A)ANTHRACENE, 57-97-6, Dose [Inhibitor]: 0.068 MMOL/G IN DIET FOR 8 D BEGINNING 7 D PRIOR TO CARCINOGEN DOSE (STUDY DURATION: 23 WK), Species: RAT, Strain/Sex: SPRAGUE-DAWLEY/FEMALE, Target Tissue: Type of Lesion: MAMMARY GLAND: TUMOR, Dose [Carcinogen]: 12 MG IN 1.0 ML OLIVE OIL ONCE ON D 7 OF EXPERIMENT, Promoter: NONE USED): 85%, 38%, 55%, p<0.05
tumour outcome (control, treated, inhibition, significance) (Carcinogen: BENZO[A]PYRENE, 50-32-8, Dose [Inhibitor]: 0.034 MMOL/G IN DIET BEGINNING 1 WK PRIOR TO FIRST CARCINOGEN DOSE AND CONTINUING FOR 3 D POST LAST CARCINOGEN DOSE FOR, Species: MOUSE, Strain/Sex: ICR/FEMALE, Target Tissue: Type of Lesion: FORESTOMACH: TUMOR, Dose [Carcinogen]: 1 MG IN 0.2 ML CORN OIL 2/WK FOR 4 WK, Promoter: NONE USED): 100%, 94%, 6%, not significant

C/C1=C\C=C(\C(C)C)[C@@H](O)C/C(C)=C/CC/C(C)=C/CC1
tumour outcome (control, treated, inhibition, significance) (Carcinogen: N-METHYL-N-NITROSOUREA, 684-93-5, Dose [Inhibitor]: 0.01% IN DIET BEGINNING 1 WK POST LAST CARCINOGEN DOSE (STUDY DURATION: 26 WK), Species: RAT, Strain/Sex: CD-FISCHER/FEMALE, Target Tissue: Type of Lesion: LARGE INTESTINE: TUMOR, Dose [Carcinogen]: 2 MG IN WATER 3/WK FOR 3 WK, Promoter: NONE USED): 22/26 (85%), 15/26 (58%), 32%, p<0.01-p<0.05
tumour outcome (control, treated, inhibition, significance) (Carcinogen: N-METHYL-N-NITROSOUREA, 684-93-5, Dose [Inhibitor]: 0.01% IN DIET BEGINNING WEEK 1 AND CONTINUING FOR DURATION OF STUDY (STUDY DURATION: 26 WK), Species: RAT, Strain/Sex: CD-FISCHER/FEMALE, Target Tissue: Type of Lesion: LARGE INTESTINE: TUMOR, Dose [Carcinogen]: 2 MG IN WATER 3/WK FOR WEEKS 1-3, Promoter: NONE USED): 22/26 (85%), 13/26 (50%), 41%, p<0.01-p<0.05
tumour outcome (control, treated, inhibition, significance) (Carcinogen: N-NITROSOBIS(2-HYDROXYPROPYL)AMINE, 53609-64-6, Dose [Inhibitor]: 0, 0.01% IN DIET FOR 27 WK (STUDY DURATION: 27 WK), Species: HAMSTER, Strain/Sex: SYRIAN/FEMALE, Target Tissue: Type of Lesion: PANCREAS: TUMOR, Dose [Carcinogen]: 500 MG/KG IN OLIVE OIL 1/WK FOR 27 WK, Promoter: NONE USED): 11/22 (50%), 4/20 (20%), 60%, p<0.05
